What all share (assay): Large panel kinase profiling
Holding throughout (assay type): biochemical
What all share (settings): 1 μM test article, 1 mM ATP

One experiment deals with T1, CSNK2A1/CK2A1 (Homo sapiens, UniProt P68400).
T1 construct: AssayQuant Technologies, Inc. (service laboratory)
The gist of the method: (§1)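 Single-point profiling at 1 μM test article used 1 mM ATP. Phosphorylation was tracked by sensor fluorescence increase over time at 30° C., with readings each minute at excitation 360 nm and emission 485 nm.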

Another experiment concerns the target FES (Homo sapiens, UniProt P07332). In a few lines:
as §1

The target of a further experiment is T2, PRKD1 (Homo sapiens, UniProt Q15139).
T2 sequence (Q15139 1-912): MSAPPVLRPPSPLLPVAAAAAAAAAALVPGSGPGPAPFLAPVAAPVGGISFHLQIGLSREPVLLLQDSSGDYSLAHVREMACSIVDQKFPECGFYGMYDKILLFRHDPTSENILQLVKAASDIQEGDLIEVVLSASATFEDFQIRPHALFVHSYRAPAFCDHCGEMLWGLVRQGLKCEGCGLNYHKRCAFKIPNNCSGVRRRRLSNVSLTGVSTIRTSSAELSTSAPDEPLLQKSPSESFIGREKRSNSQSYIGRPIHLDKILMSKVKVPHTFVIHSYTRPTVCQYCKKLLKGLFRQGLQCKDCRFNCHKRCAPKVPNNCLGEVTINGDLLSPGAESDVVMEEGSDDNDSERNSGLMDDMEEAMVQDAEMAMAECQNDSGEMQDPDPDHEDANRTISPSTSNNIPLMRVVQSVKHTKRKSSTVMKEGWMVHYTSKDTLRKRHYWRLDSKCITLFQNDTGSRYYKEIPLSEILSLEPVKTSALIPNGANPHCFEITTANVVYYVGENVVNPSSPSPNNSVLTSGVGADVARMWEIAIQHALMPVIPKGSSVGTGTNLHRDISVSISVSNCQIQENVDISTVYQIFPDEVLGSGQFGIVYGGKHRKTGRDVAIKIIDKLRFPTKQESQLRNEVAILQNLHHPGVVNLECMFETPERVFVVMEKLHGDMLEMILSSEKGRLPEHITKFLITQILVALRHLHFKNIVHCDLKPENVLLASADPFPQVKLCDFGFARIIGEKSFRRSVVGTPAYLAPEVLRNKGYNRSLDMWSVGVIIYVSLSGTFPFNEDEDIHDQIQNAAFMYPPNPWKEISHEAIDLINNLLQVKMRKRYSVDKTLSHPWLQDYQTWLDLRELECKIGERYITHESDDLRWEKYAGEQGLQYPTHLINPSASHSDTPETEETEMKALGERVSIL
In a few lines: as §1

In a further experiment the target is T3, STK4/MST1 (Homo sapiens, UniProt Q13043).
T3 construct: AssayQuant Technologies, Inc. (contract assay)
T3 sequence (Q13043 1-487): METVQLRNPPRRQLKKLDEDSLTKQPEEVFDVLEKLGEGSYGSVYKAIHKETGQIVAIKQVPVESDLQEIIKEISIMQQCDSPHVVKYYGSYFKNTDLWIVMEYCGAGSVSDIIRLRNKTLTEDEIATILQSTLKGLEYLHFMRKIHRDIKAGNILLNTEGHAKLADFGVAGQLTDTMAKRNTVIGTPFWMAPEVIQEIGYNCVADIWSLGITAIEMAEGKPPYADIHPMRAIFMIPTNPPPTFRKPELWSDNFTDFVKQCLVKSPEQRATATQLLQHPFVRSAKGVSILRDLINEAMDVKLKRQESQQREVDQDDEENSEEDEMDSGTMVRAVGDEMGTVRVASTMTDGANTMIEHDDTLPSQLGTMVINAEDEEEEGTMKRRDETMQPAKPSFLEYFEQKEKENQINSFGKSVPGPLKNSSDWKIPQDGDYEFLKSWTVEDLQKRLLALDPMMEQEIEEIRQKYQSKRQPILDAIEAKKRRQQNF
In a few lines: as §1

The target in another experiment is T4, ULK2 (Homo sapiens, UniProt Q8IYT8).
T4 construct: AssayQuant Technologies, Inc. (contract laboratory that ran the panel)
T4 sequence (Q8IYT8 1-1036): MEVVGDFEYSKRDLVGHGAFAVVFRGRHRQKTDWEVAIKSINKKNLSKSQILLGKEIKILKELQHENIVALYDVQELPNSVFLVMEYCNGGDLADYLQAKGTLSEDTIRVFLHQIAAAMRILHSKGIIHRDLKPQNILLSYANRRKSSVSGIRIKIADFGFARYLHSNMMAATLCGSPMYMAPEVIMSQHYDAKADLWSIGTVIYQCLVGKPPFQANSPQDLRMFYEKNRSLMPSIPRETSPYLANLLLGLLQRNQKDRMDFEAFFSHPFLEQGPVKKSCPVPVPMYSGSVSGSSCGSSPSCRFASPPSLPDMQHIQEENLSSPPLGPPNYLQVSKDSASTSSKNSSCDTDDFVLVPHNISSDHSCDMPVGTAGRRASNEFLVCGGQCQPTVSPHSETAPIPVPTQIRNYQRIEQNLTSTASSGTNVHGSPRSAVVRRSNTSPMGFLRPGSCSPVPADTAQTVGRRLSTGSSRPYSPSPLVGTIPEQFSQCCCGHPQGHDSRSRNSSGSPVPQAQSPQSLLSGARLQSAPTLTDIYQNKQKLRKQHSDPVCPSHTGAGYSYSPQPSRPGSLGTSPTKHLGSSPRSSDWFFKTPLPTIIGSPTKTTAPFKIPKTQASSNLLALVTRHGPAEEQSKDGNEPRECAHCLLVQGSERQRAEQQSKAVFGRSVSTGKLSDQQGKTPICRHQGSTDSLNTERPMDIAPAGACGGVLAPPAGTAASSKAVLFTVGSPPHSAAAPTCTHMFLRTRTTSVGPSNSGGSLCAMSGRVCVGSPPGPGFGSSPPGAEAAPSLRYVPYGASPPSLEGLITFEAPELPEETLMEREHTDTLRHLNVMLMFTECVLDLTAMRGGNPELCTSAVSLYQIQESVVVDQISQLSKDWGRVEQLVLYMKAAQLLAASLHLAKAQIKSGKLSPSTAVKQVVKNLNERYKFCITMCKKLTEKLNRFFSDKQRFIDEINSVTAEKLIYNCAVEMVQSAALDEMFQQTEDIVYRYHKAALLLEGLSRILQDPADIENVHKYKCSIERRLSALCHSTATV
In a few lines:
as §1

FES, sequence (P07332 whole entry, species assumed): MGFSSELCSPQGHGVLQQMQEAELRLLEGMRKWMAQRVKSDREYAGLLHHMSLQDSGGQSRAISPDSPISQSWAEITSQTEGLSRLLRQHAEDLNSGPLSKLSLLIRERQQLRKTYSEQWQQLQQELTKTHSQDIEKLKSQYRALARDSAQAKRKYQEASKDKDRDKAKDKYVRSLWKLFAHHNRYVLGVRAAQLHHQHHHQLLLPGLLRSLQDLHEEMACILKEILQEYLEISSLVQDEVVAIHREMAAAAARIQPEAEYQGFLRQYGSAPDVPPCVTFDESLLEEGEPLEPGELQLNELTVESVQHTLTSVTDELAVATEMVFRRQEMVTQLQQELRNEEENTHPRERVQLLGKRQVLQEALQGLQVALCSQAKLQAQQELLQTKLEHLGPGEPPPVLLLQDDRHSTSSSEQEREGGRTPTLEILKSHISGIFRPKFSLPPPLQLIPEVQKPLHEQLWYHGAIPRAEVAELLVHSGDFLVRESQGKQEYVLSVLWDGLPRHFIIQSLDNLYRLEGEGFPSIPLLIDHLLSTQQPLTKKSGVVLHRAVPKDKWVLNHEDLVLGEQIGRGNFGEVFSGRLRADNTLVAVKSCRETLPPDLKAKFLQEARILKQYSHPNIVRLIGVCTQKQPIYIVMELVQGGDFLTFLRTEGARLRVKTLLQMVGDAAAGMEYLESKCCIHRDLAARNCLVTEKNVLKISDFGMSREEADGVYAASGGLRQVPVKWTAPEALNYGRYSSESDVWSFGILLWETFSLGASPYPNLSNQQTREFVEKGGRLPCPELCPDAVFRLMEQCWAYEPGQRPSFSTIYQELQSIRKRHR
T1 sequence (P68400 whole entry): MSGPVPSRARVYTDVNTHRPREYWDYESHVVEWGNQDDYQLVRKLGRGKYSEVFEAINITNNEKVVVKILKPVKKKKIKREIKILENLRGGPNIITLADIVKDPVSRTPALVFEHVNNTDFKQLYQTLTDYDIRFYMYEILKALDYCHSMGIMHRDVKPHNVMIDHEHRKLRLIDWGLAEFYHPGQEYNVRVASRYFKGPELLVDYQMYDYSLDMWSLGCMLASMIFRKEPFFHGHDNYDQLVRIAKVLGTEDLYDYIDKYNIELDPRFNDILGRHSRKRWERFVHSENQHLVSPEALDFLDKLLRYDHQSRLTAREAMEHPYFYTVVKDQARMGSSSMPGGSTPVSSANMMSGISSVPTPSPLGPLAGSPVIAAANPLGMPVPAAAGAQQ

Regarding `C=CC(=O)N1CCCC(c2c(F)cc(C(N)=O)c3[nH]c4c(c23)CCCCC4)C1` (single isomer, unassigned) [Compound 5-6], the inhibition (commonly the drop in the measured response relative to a control, in per cent) at 1 µM at CSNK2A1/CK2A1 is 0.4%; on FES, 24.5%; on PRKD1 it was -6.6%; at STK4/MST1 it was 0.9%; against ULK2 it was -17.5%.

As to `C=CC(=O)N1CCC[C@@H](c2c(F)cc(C(N)=O)c3[nH]c4c(c23)CC2(CC4)CC2)C1` [Compound 6-2, (S)-5-(1-acryloylpiperidin-3-yl)-6-fluoro-1,2,4,9-tetrahydrospiro[carbazole-3,1′-cyclopropane]-8-carboxamide], the inhibition at 1 µM against CSNK2A1/CK2A1 was -12%; against FES, -33%; on PRKD1, -16%; against STK4/MST1, -9.5%; at ULK2, -6.2%.

In the case of `C=CC(=O)N1CCC[C@@H](c2c(F)cc(C(N)=O)c3[nH]c4c(c23)CCC4)C1` [Compound 10-2, (S)-8-(1-acryloylpiperidin-3-yl)-7-fluoro-1,2,3,4-tetrahydrocyclo-penta[b]indole-5-carboxamide], the inhibition at 1 µM against CSNK2A1/CK2A1 is -32%; on FES, -31.2%; against PRKD1, -24.2%; against STK4/MST1, 0.4%; on ULK2, -5.8%.

Values taken from US20220009920A1 (GB005, Inc., priority 2020, published 2022).
